The source of these data is patent US8269043B2, “Bicyclic aryl sphingosine 1-phosphate analogs” (Biogen Idec MA Inc., priority 2008, dated 2012).

The first experiment relates to circulating lymphocytes. Kind of experiment: Lymphopenia assay: circulating lymphocytes after oral gavage. The format is in vivo. The following applies: C57bl/6 male mice, oral gavage 0.5 and 5 mg/kg in 30% HPCD, blood 5 and 24 hours after administration. The procedure:
Measurement of circulating lymphocytes: Compounds were dissolved in 30% HPCD. Mice (C57bl/6 male, 6-10 week-old) were administered 0.5 and 5 mg/kg of a compound via oral gavage. 30% HPCD was included as a negative control.
Blood was collected from the retro-orbital sinus 5 and 24 hours after drug administration under short isoflurane anesthesia. Whole blood samples were subjected to hematology analysis. Peripheral lymphocyte counts were determined using an automated analyzer (HEMAVET™ 3700). Three mice were used to assess the lymphocyte depletion activity of each compound screened.
Compounds of formula (I) induced full lymphopenia at times as short as 3 hours or less to as long as 48 hours or more; for example, 4 to 36 hours, or 5 to 24 hours. In some cases, a compound of formula induced full lymphopenia at 5 hours and partial lymphopenia at 24 hours. The dosage required to induce lymphopenia can be in the range of, e.g., 0.001 mg/kg to 100 mg/kg; or 0.01 mg/kg to 10 mg/kg. The dosage can be 10 mg/kg or less, such as 5 mg/kg or less, 1 mg/kg or less, or 0.1 mg/kg or less
Turning to “(R)-2-Amino-2-[6-(cis-4-pentyl-cyclohexyloxy)-naphthalen-2-yl]-propan-1-ol and (R)-2-Amino-2-[6-(trans-4-pentyl-cyclohexyloxy)-naphthalen-2-yl]-propan-1-ol [Example 272]”, the “Lymphopenia (ED50 mg/kg)” value is given as under 0.5 mg/kg.

With “(R)-2-amino-2-(6-(3-(benzyloxy)phenylthio)naphthalen-2-yl)propan-1-ol [Example 155]”, the “Lymphopenia (ED50 mg/kg)” value was under 0.5 mg/kg.

For the compound “(R)-2-amino-2-(6-((1R,2R,4S)-bicyclo[2.2.1]heptan-2-yloxy)naphthalen-2-yl)propan-1-ol [Example 105]”, the “Lymphopenia (ED50 mg/kg)” value is over 5 mg/kg.

The same experiment, now with this note: Mus musculus, Lymphocyte, po, C57bl/6 male mice, oral gavage 0.5 and 5 mg/kg in 30% HPCD, blood 5 and 24 hours after administration.
A word on the ED50: it is the dose at which the effect has come halfway, by size or by number of responders. A high value points to weaker potency. Compound `CC(C)(C)[C@H]1CC[C@H](Oc2ccc3cc([C@@](C)(N)CO)ccc3c2-c2ccccc2)CC1` [Example 229, (R)-2-amino-2-(6-(trans-4-tert-butylcyclohexyloxy)-5-phenylnaphthalen-2-yl)propan-1-ol] returned a 50% effective dose (ED50) of over 5 mg/kg.

`CC(C)(C)[C@H]1CC[C@H](Oc2ccc3cc([C@@](C)(N)CO)ccc3c2-c2cccc(Cl)c2)CC1` [Example 231, (R)-2-amino-2-(6-(trans-4-tert-butylcyclohexyloxy)-5-(3-chlorophenyl)naphthalen-2-yl)propan-1-ol] gave a 50% effective dose (ED50) of over 5 mg/kg.

On to `CC(C)(C)[C@H]1CC[C@H](Oc2ccc3cc([C@@](C)(N)CO)ccc3c2-c2ccc(Cl)cc2)CC1` [Example 233, (R)-2-amino-2-(6-(trans-4-tert-butylcyclohexyloxy)-5-(4-chlorophenyl)naphthalen-2-yl)propan-1-ol], for which the ED50 was over 5 mg/kg.

For the compound `CC(C)(C)[C@H]1CC[C@H](Oc2ccc3cc([C@@](C)(N)CO)ccc3c2Cl)CC1` [Example 236, (R)-2-amino-2-(6-(trans-4-tert-butylcyclohexyloxy)-5-chloronaphthalen-2-yl)propan-1-ol], the ED50 is under 0.5 mg/kg.

`CC(C)(C)[C@H]1CC[C@H](Oc2ccc3cc([C@@](C)(N)CO)ccc3c2Br)CC1` [Example 237, (R)-2-amino-2-(5-bromo-6-(trans-4-tert-butylcyclohexyloxy)naphthalen-2-yl)propan-1-ol] showed a 50% effective dose (ED50) of under 0.5 mg/kg.

Compound `CC(C)(C)[C@H]1CC[C@H](Oc2ccc3cc([C@]4(C)COC(=O)N4)ccc3c2)CC1` [Example 238, (R)-4-(6-(trans-4-tert-butylcyclohexyloxy)naphthalen-2-yl)-4-methyloxazolidin-2-one] showed an ED50 of under 0.5 mg/kg.

Regarding `CC(C)(C)[C@H]1CC[C@H](Oc2c(Cl)c(Cl)c3cc([C@@](C)(N)CO)ccc3c2Cl)CC1` [Example 240, (R)-2-amino-2-(6-(trans-4-tert-butylcyclohexyloxy)-5,7,8-trichloronaphthalen-2-yl)propan-1-ol], the 50% effective dose (ED50) was over 5 mg/kg.

On to `CC(C)(C)[C@H]1CC[C@H](Oc2ccc3cc([C@@](C)(N)CO)ccc3c2F)CC1` [Example 242, (R)-2-amino-2-(6-(trans-4-tert-butylcyclohexyloxy)-5-fluoronaphthalen-2-yl)propan-1-ol], for which the ED50 was under 0.5 mg/kg.

`NC(CO)(CO)c1ccc2cc(Oc3ccc(Oc4ccccc4)cc3)ccc2c1` [Example 245, 2-amino-2-(6-(4-phenoxyphenoxy)naphthalen-2-yl)propane-1,3-diol] showed an ED50 of under 0.5 mg/kg.

In turn, `NC(CO)(CO)c1ccc2cc(Oc3ccc(OCc4ccccc4)cc3)ccc2c1` [Example 248, 2-amino-2-(6-(4-(benzyloxy)phenoxy)naphthalen-2-yl)propane-1,3-diol] showed an ED50 of under 0.5 mg/kg.

In the case of `CCCCCOc1ccc(Oc2ccc3cc(C(N)(CO)CO)ccc3c2)cc1` [Example 251, 2-amino-2-(6-(4-(pentyloxy)phenoxy)naphthalen-2-yl)propane-1,3-diol], the ED50 is under 0.5 mg/kg.

In turn, `C[C@](N)(CO)c1ccc2cc(O[C@H]3CC[C@@H](C(F)(F)F)CC3)ccc2c1` [Example 259, (R)-2-Amino-2-[6-(cis-4-trifluoromethyl-cyclohexyloxy)-naphthalen-2-yl]-propan-1-ol] gave a median effective dose (ED50) of 0.5 to 5 mg/kg.

Compound `C[C@](N)(CO)c1ccc2cc(O[C@H]3CC[C@H](C(F)(F)F)CC3)ccc2c1` [Example 260, (R)-2-Amino-2-[6-(trans-4-trifluoromethyl-cyclohexyloxy)-naphthalen-2-yl]-propan-1-ol] displayed an ED50 of 0.5 to 5 mg/kg.

Regarding `C[C@](N)(CO)c1ccc2c(C(F)(F)F)c(O[C@H]3CC[C@H](C(F)(F)F)CC3)ccc2c1` [Example 266, (R)-2-Amino-2-[5-trifluoromethyl-6-(trans-4-trifluoromethylcyclohexyloxy)-naphthalen-2-yl]propan-1-ol], the 50% effective dose (ED50) was under 0.5 mg/kg.

On to `CC(F)(F)[C@H]1CC[C@H](Oc2ccc3cc([C@@](C)(N)CO)ccc3c2)CC1` [Example 299, (R)-2-amino-2-(6-(trans-4-(1,1-difluoroethyl)cyclohexyloxy)naphthalen-2-yl)propan-1-ol], for which the ED50 is under 0.5 mg/kg.

`CCC(F)(F)[C@H]1CC[C@H](Oc2ccc3cc([C@@](C)(N)CO)ccc3c2)CC1` [Example 305, (R)-2-amino-2-(6-(trans-4-(1,1-difluoropropyl)cyclohexyloxy)naphthalen-2-yl)propan-1-ol]: the ED50 is under 0.5 mg/kg.

`CCCC(F)(F)[C@H]1CC[C@H](Oc2ccc3cc([C@@](C)(N)CO)ccc3c2)CC1` [Example 311, (R)-2-amino-2-(6-(trans-4-(1,1-difluorobutyl)cyclohexyloxy)naphthalen-2-yl)propan-1-ol] registered a 50% effective dose (ED50) of under 0.5 mg/kg.

`CC(F)(F)[C@H]1CC[C@@H](Oc2ccc3cc([C@@](C)(N)CO)ccc3c2)CC1` [Example 319, (R)-2-amino-2-(6-(cis-4-(1,1-difluoroethyl)cyclohexyloxy)naphthalen-2-yl)propan-1-ol] returned a 50% effective dose (ED50) of over 5 mg/kg.

On to `CCC(F)(F)[C@H]1CC[C@@H](Oc2ccc3cc([C@@](C)(N)CO)ccc3c2)CC1` [Example 325, (R)-2-amino-2-(6-(cis-4-(1,1-difluoropropyl)cyclohexyloxy)naphthalen-2-yl)propan-1-ol], for which the ED50 was over 5 mg/kg.

Regarding `CCCC(F)(F)[C@H]1CC[C@@H](Oc2ccc3cc([C@@](C)(N)CO)ccc3c2)CC1` [Example 331, (R)-2-amino-2-(6-(cis-4-(1,1-difluorobutyl)cyclohexyloxy)naphthalen-2-yl)propan-1-ol], the 50% effective dose (ED50) was over 5 mg/kg.

The compound `CC(F)(F)[C@H]1CC[C@H](Oc2ccc3cc([C@@](C)(N)CO)ccc3c2C(F)(F)F)CC1` [Example 334, (R)-2-amino-2-(6-(trans-4-(1,1-difluoroethyl)cyclohexyloxy)-5-(trifluoromethyl)naphthalen-2-yl)propan-1-ol] had an ED50 of under 0.5 mg/kg.

Compound `CCC(F)(F)[C@H]1CC[C@H](Oc2ccc3cc([C@@](C)(N)CO)ccc3c2C(F)(F)F)CC1` [Example 337, (R)-2-amino-2-(6-(trans-4-(1,1-difluoropropyl)cyclohexyloxy)-5-(trifluoromethyl)naphthalen-2-yl)propan-1-ol] showed an ED50 of under 0.5 mg/kg.

In a further experiment the target is T1, human S1P1 (Homo sapiens, UniProt P21453).
T1 construct: host or cells: recombinant CHEM cells
T1 sequence (P21453 whole entry): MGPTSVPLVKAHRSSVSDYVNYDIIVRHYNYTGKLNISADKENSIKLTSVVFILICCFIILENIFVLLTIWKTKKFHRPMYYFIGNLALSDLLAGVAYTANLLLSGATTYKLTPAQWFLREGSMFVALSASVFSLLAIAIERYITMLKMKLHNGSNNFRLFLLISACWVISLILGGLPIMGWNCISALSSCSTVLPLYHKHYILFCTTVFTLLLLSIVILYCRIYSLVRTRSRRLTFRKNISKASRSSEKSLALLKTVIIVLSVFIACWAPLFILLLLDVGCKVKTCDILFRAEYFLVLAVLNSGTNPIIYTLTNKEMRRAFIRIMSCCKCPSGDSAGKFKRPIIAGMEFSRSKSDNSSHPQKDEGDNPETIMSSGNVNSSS
Kind of experiment: Calcium mobilization assay, agonist activity at human S1P1. The format is cell-based. The settings on record: recombinant CHEM cells expressing human S1P1, FLIPR Calcium 4 dye (FIG. 8, FIG. 11). The method, then:
(§1) Compounds that were not specific for the S1P, receptor, can have activity for other S1P receptor subtypes, e.g., S1P2, S1P3, S1P4, or S1P5, and can cause undesirable side effects. Accordingly, compounds were tested to identify those that were specific for S1P1 activity and had little or no activity, or are antagonists of, S1P3 activity. Accordingly, the test compounds were tested in a calcium mobilization assay to determine agonist activity at either the human S1P1 or human S1P3 receptor, and antagonist activity only at the human S1P3 receptor. The procedure was essentially as described (with modifications described below) in Davis et al. (2005) Journal of Biological Chemistry, vol. 280, pp. 9833-9841, which is incorporated by reference in its entirety. Calcium mobilization assays were performed in recombinant CHEM cells expressing human S1P1 or S1P3 purchased from Millipore (Billerica, Mass.). To detect free intracellular calcium, S1P1 or S1P3 cells were loaded with FLIPR Calcium 4 dye from Molecular Devices (Sunnyvale, Calif.). Cells were imagined for calcium mobilization using a FLIPR^TETRA equipped with a 96-well dispense head.
As to `CC(C)(C)[C@H]1CC[C@H](Oc2ccc3cc(C(N)(COP(=O)(O)O)COP(=O)(O)O)ccc3c2C(F)(F)F)CC1` [Example 61A, 2-amino-2-[6-(trans-4-tert-butylcyclohexyloxy)-5-trifluoromethyl-naphthalen-2-yl]-propane-1,3-diphosphoric acid], the S1P1 agonist activity entry was “agonists of the S1P, receptor, with potencies similar to S1P”.

The target of the next experiment is T2, human S1P3 receptor (Homo sapiens, UniProt Q99500).
T2 construct: host or cells: recombinant CHEM cells
T2 sequence (Q99500 whole entry): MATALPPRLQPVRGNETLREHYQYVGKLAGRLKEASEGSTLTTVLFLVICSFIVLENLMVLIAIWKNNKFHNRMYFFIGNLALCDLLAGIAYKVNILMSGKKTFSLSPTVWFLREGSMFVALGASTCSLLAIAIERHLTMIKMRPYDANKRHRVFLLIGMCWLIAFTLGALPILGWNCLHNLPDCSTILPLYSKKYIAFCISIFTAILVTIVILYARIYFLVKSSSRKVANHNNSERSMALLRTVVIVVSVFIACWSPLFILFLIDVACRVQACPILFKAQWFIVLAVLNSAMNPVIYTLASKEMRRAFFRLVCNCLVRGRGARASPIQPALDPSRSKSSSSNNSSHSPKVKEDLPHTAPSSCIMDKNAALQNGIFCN
As to the kind of experiment: Calcium mobilization assay, agonist activity at human S1P3. The format is cell-based. The settings on record: recombinant CHEM cells expressing human S1P3, FLIPR Calcium 4 dye (FIG. 9, FIG. 11). The procedure: as §1
(In general: Calcium flux is commonly read through the fluorescence of an indicator in the cells.)
On to `COc1ccc2cc([C@H](C)COC(N)=O)ccc2c1` [Example 2, carbamic acid (S)-2-(6-methoxy-naphthalen-2-yl)-propyl ester], for which the S1P3 agonist activity entry was “no activity was seen”.

Turning to `CCCCCCCCCCCCC/C=C/[C@@H](O)[C@@H](N)COP(=O)(O)O` [Example S1P, Sphingosine 1-phosphate], the S1P3 agonist activity result is “full S1P3 agonist”.

The target of a further experiment is T2, human S1P3 receptor. As to the kind of experiment: Calcium mobilization assay, antagonist activity at human S1P3. The format is cell-based. The following applies: recombinant CHEM cells expressing human S1P3, FLIPR Calcium 4 dye (FIG. 10, FIG. 11). The method, then:
as §1
For the compound `CC(C)(C)[C@H]1CC[C@H](Oc2ccc3cc(C(N)(COP(=O)(O)O)COP(=O)(O)O)ccc3c2C(F)(F)F)CC1` [Example 61A, 2-amino-2-[6-(trans-4-tert-butylcyclohexyloxy)-5-trifluoromethyl-naphthalen-2-yl]-propane-1,3-diphosphoric acid], the S1P3 antagonist activity result is “do not antagonize the S1P3 receptor”.
